Results on ten molecules are retold here after patent publication US9663503B2, “5-[[4-[[morpholin-2-yl]methylamino]-5-(trifluoromethyl)-2-pyridyl]amino]pyrazine-2-carbonitrile and therapeutic uses thereof” (priority 2012, dated 2017).

The structures appear in SMILES notation.

One series in a line: in vivo. To be noted: female Balb/c mice, 10 mg/kg iv and po. The protocol:
Assay 5: Oral Bioavailability and Pharmacokinetics in Mice
All work was performed in accordance with the Home Office regulations under the Animals (Scientific Procedures) Act 1986 and according to UKCCCR guidelines for animal experimentation.
CHK1 inhibitor compounds were formulated in 10% DMSO, 1% Tween 20 and 89% sterile saline. Female Balb/c mice (Charles River UK Ltd, Margate, U.K.) were administered intravenously (iv) and orally (po) with 10 mg/kg of CHK1 inhibitor compound. Control animals received the vehicle alone. Groups of 3 mice were injected per timepoint. At 5, 15 and 30 minutes and 1, 2, 4, 6 and 24 hours after dosing, blood was collected by cardiac puncture with heparinised syringes from mice under anaesthesia (halothane/oxygen mix). Following centrifugation (9000×g, 2 minutes, 4° C.) plasma was frozen on dry ice and stored at −80° C. Tissues were excised, snap frozen in liquid nitrogen and stored at −80° C. Thawed plasma samples were extracted by protein precipitation using 3 volumes of methanol containing internal standard. […]. After centrifugation, supernatant was transferred for analysis. Extracted plasma samples were analysed by LC-MS-MS on an Agilent 1200 or 1290 LC coupled to an Agilent 6410 triple quadrupole mass spectrometer for the quantitation of the CHK1 inhibitor compound and internal standard. […]

The test system of series [1] is HT29 cells. Nature of the series: Cellular potency in Mitosis Inhibition Assay (MIA), checkpoint abrogation after etoposide. The series is classed as cell-based. To be noted: versus Y-154. The protocol:
Assay 2: Cellular Potency in Mitosis Inhibition Assay (MIA)
Checkpoint abrogation by CHK1 kinase function inhibitors in combination with genotoxic agents was assessed using a europium based ELISA assay designed to quantify the number of cells trapped in mitosis after treatment with a genotoxic agent (to induce G2 arrest) followed by a CHK1 inhibitor test compound in combination with nocodazole to abrogate this arrest. HT29 cells were seeded at 10^4 cells per well into 96-well plates in a volume of 160 μL and left to attach for 36 hours. […] After genotoxic drug exposure, the medium was removed and replaced with fresh medium (160 μL). […] CHK1 inhibitor test compounds were added in 40 μL aliquots using quadruplicate wells for each concentration. After 21 hours exposure, the medium was removed and cells were fixed in 4% formaldehyde in phosphate buffered saline (PBS, pH 7.4, pre-cooled to 4° C.) for 30 minutes at 4° C., followed by 100% methanol (pre-cooled to −20° C.) for 10 minutes at ambient temperature. Wells were washed with PBS and blocked with 5% dried milk (Marvel) in Tris-buffered saline (TBS, pH 7.4) at 37° C. for 30 minutes. Each well was washed three times with water containing 0.1% Tween 20. […] Primary antibody was removed and wells were washed with water containing 0.1% Tween 20. […] Europium emissions were counted on a Wallac, Victor2 counter (Perkin-Elmer, Bucks UK).

Another series deals with CHK1 (Homo sapiens (Human), UniProt O14757). Nature of the series: CHK1 DELFIA assay as described in Collins et al., 2009a. The series is classed as biochemical.
The subject of series [2] is HT29 cells. In words: Selectivity in cells for CHK1-dependent checkpoint abrogation versus cytotoxicity (SRB IC50/MIA IC50). The series is classed as cell-based. To be noted: SRB IC50/MIA IC50, both in HT29 cells. As to the method:
Assay 3: Assessment of Selectivity in Cells for CHK1-Dependent Checkpoint Abrogation versus Cytotoxicity
Compound cytotoxicity was assessed using a 96 hour sulforhodamine B assay (SRB, Sigma catalog number S9012). HT29 or SW620 cells were seeded at 1.6 to 3.2×10^3 cells per well in 96-well plates in a volume of 160 μL medium and allowed to attach for 36 hours prior to treatment. […] Cells were incubated for 96 hours (four doublings) at 37° C. in a humidified 5% CO2 environment and then fixed and stained with SRB.
The Activity Index (AI), a measure of the selectivity of the CHK1 inhibitor test compounds for effecting CHK1-dependent checkpoint abrogation versus cytotoxicity was calculated from the ratio of the CHK1 inhibitor cytotoxicity IC50 versus the MIA IC50 (i.e., Al=CHK1 inhibitor SRB IC50/MIA IC50), both measured in HT29 cells.

The subject of series [3] is HT29 cells. In words: Cellular efficacy in combination with SN38 (SRB potentiation). To be noted: SRB IC50/Potentiation IC50, 96 hour, SN38 at its IC50. The series is classed as cell-based. As to the method:
Assay 4: Cellular Efficacy in HT29 or SW620 Colon Carcinoma Cells in Combination with SN38 or Gemcitabine
HT29 or SW620 cells were seeded at 1.6 to 3.2×10^3 cells per well in 96-well plates in a volume of 160 μL medium and allowed to attach for 36 hours prior to treatment.
The Potentiation Index (PI) was calculated as a measure of the ability of the CHK1 inhibitor to enhance SN38 or gemcitabine cytotoxicity and was defined as the ratio of the Cytotoxicity IC50 of the CHK1 inhibitor alone versus the Potentiation IC50 of the CHK1 inhibitor combined with the genotoxic (i.e., PI=CHK1 inhibitor SRB IC50/Potentiation IC50).

Sequence of CHK1 (O14757 whole entry): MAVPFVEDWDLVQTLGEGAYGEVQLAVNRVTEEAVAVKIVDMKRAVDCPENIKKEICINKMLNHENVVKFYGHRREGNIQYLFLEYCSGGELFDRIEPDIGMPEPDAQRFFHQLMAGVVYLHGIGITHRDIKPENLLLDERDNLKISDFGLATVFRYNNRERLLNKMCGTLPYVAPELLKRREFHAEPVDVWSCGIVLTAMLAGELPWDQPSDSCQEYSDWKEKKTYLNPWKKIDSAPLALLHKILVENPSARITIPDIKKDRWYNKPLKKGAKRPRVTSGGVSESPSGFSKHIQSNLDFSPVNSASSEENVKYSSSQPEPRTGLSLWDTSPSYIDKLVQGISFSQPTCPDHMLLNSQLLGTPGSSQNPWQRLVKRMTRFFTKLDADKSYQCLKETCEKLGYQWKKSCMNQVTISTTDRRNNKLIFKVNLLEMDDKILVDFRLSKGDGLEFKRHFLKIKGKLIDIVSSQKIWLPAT

By bioavailability is commonly meant dose-corrected exposure relative to a reference, in per cent. Turning to `N#Cc1cnc(Nc2cc(NC[C@H]3CNCCO3)c(C(F)(F)F)cn2)cn1` [Compound 1, 5-[[4-[[(2R)-Morpholin-2-yl]methylamino]-5-(trifluoromethyl)-2-pyridyl]amino]pyrazine-2-carbonitrile], the “Oral Bioavailability in Mouse” value in the series “in vivo” worked out at 105%. In “in vivo” (female, Balb/c, mouse, in vivo, 10 mg/kg), this molecule returned a bioavailability of 100%. Moreover, in the series on HT29 cells [1], the “more potent than the next most potent compound (Y-154), MIA cellular potency” value is on record as “approximately 3 fold”.
`N#Cc1cnc(Nc2cc(NC[C@@H]3CNCCO3)c(C(F)(F)F)cn2)cn1` [Compound 2, 5-[[4-[[(2S)-Morpholin-2-yl]methylamino]-5-(trifluoromethyl)-2-pyridyl]amino]pyrazine-2-carbonitrile]: the “more potent than the next most potent compound (Y-154), MIA cellular potency” value in the series on HT29 cells [1] was approximately 5 fold.
Broadly, the IC50 is the midpoint of a concentration-inhibition curve. A high value points to lower potency. For the molecule `N#Cc1cnc(Nc2cc(NCC3CNCCO3)c(C(=O)Nc3ccccc3)cn2)cn1` (stereo not shown) [Compound Y-102], the IC50 against CHK1 is 20 nM. Moreover, the “Cellular Selectivity (Activity Index)” value in the series with HT29 cells [2] came out at 4.6 fold.
`COCc1ccc(-c2cnc(Nc3cnc(C#N)cn3)cc2NC[C@@H]2CNCCO2)cc1` [Compound Y-148]: the IC50 against CHK1 came to 13 nM. Further, the “Cellular Selectivity (Activity Index)” value in the series on HT29 cells [2] worked out at 4.4 fold.
The corresponding values for `COCCOc1ccc(-c2cnc(Nc3cnc(C#N)cn3)cc2NC[C@@H]2CNCCO2)cc1` [Compound Y-149] are 10 nM and 3.5 fold.
For the molecule `COCC#Cc1cnc(Nc2cnc(C#N)cn2)cc1NC[C@@H]1CNCCO1` [Compound Y-154], the “Cell Efficacy + SN38 in HT29 cells (Potentiation Index)” value with HT29 cells [3] is listed as 0.8 fold. Also, at CHK1, the concentration for half-maximal inhibition (IC50) was found to be 1 nM. For the same molecule, the “Cellular Selectivity (Activity Index)” value in the series with HT29 cells [2] was 9.0 fold.
With `COC(C)(C)C#Cc1cnc(Nc2cnc(C#N)cn2)cc1NC[C@@H]1CNCCO1` [Compound Y-155], in the series on HT29 cells [3], the “Cell Efficacy + SN38 in HT29 cells (Potentiation Index)” value was determined as 0.9 fold. The concentration for half-maximal inhibition (IC50) at CHK1 is 5 nM.
In the case of `COCc1ccc(-c2cnc(Nc3cnc(C#N)cn3)cc2NC[C@H]2CNCCO2)cc1` [Compound Y-156], in the series on HT29 cells [3], the “Cell Efficacy + SN38 in HT29 cells (Potentiation Index)” value turned out to be 1.6 fold. This molecule had an IC50 against CHK1 of 10 nM. The “Cellular Selectivity (Activity Index)” value in the series with HT29 cells [2] is on record as 5.4 fold.
In the same order, the values of `COCCOc1ccc(-c2cnc(Nc3cnc(C#N)cn3)cc2NC[C@H]2CNCCO2)cc1` [Compound Y-157] are 2 fold, 15 nM and 6.3 fold.
`COCCCc1cnc(Nc2cnc(C#N)cn2)cc1NC[C@H]1CNCCO1` [Compound Y-159] registered an IC50 against CHK1 of 23 nM.
